This passage reports IC50 and Kd results from ChEMBL document CHEMBL2046320, “Bisubstrate analog inhibitors of 6-hydroxymethyl-7,8-dihydropterin pyrophosphokinase: new lead exhibits a distinct binding mode” (Bioorg Med Chem, 2012).

Assay [1] concerns the target T1, 2-amino-4-hydroxy-6-hydroxymethyldihydropteridine pyrophosphokinase (Escherichia coli (strain K12), UniProt P26281).
T1 sequence (P26281 whole entry): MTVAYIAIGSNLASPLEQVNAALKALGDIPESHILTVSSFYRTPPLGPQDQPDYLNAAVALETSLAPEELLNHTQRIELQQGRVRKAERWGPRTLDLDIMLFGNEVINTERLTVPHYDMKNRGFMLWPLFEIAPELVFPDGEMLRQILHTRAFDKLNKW
Description: Inhibition of Escherichia coli HPPK using [alpha-33P]ATP after 30 mins.

The target of assay [2] is T1, 2-amino-4-hydroxy-6-hydroxymethyldihydropteridine pyrophosphokinase. Description: Binding affinity to Escherichia coli HPPK at pH 8.3 by fluorometric titration.

Usually IC50 stands for the point on the concentration scale where inhibition reaches its midpoint. Higher therefore signals a need for much substance. A word on the Kd: it is the concentration at which binding is half-saturated. The low end stands for tighter binding, the high end for weaker binding. Consider `CC1(C)Nc2nc(N)[nH]c(=O)c2N=C1C(=O)NCC(=O)NCCS(=O)(=O)C[C@H]1O[C@@H](n2cnc3c(N)ncnc32)[C@H](O)[C@@H]1O`, for which, in assay [1], the IC50 amounted to 9.53 µM. In assay [2], this molecule had a Kd of 4.16 µM.
